This passage reports inhibition, IC50 and IC20 results from ChEMBL document CHEMBL5550093, “Design, synthesis and antitumor activity of 2-substituted quinazoline-4-amine derivatives” (Bioorg Med Chem, 2024).

The subject of series [1] is PC-3. The experiment in a line: Antiproliferative activity against human PC-3 cells at 5 uM incubated for 48 hrs by MTT assay relative to control. It counts as functional.
In series [2] the test system is K562. The experiment in a line: Antiproliferative activity against human K562 cells at 5 uM incubated for 48 hrs by MTT assay relative to control. It counts as functional. On the technique in general: Tetrazolium dyes change colour on reduction, which living cells bring about.
A short description of series [3]: Antiproliferative activity against HEK293T cells at 5 uM incubated for 48 hrs by MTT assay relative to control. It counts as toxicity, cell-based, HEK-293T. As to conditions: human.
Series [4] concerns HeLa. As to the kind of experiment: Antiproliferative activity against human HeLa cells at 5 uM incubated for 48 hrs by MTT assay relative to control. It counts as functional.
Series [5] concerns A549. The experiment in a line: Antiproliferative activity against human A549 cells at 5 uM incubated for 48 hrs by MTT assay relative to control. It counts as functional.
The subject of series [6] is A549. As to the kind of experiment: Antiproliferative activity against human A549 cells incubated for 48 hrs by MTT assay. It counts as functional, cell-based. Particulars: A549, 48 h.
For series [7], the system named is HeLa. As to the kind of experiment: Antiproliferative activity against human HeLa cells incubated for 48 hrs by MTT assay. It counts as functional, cell-based.
Series [8] in a line: Antiproliferative activity against HEK293T cells incubated for 48 hrs by MTT assay. It counts as toxicity, cell-based, HEK-293T. Particulars: human.
For series [9], the system named is K562. As to the kind of experiment: Antiproliferative activity against human K562 cells incubated for 48 hrs by MTT assay. Particulars: K562, 48 h. It counts as functional, cell-based.
Series [10] relates to PC-3. The experiment in a line: Antiproliferative activity against human PC-3 cells incubated for 48 hrs by MTT assay. It counts as functional, cell-based. As to conditions: for IC50: PC-3, 48 h.
The test system of series [11] is PC-3. As to the kind of experiment: Antiproliferative activity against human PC-3 overexpressing WRN cells incubated for 48 hrs by MTT assay. It counts as functional.

The structures appear in SMILES notation. A value given as a limit tells only on which side of the number the result lay.

As for `COc1ccc(N(C)c2nc(C(=O)c3ccccc3)nc3ccc(F)cc23)cc1`, the inhibition (usually the relative decrease from the control value, in per cent) at 5 µM is 40.9% in series [1], 24.1% in series [2], 37.8% in [4] and 25% in [5]. The inhibition at 48 h, 5 µM in [3] amounted to 39.3%.
Turning to `COc1ccc(N(C)c2nc(C(=O)c3cccc(OC)c3)nc3ccccc23)cc1`, the IC50 (usually the point on the concentration scale where inhibition reaches its midpoint) is over 10 µM in [6], over 10 µM in series [7], 9.3 µM in series [9] and 6.6 µM in [10]. For the same compound, the inhibition at 5 µM in series [1] turned out to be 58.1%; in series [2], 61.5%; in series [4] it was 51%; in series [5] it was 52%. The IC50 at 48 h in [8] came to 6.4 µM. Also, the inhibition at 48 h, 5 µM in series [3] came to 59.6%. For the same compound, the IC20 (as a rule, the concentration at which the effect reaches the 20% level) was 0.975 µM in series [10] (PC-3, time 48 hrs) and 1.07 µM in [11].
Regarding `CN(c1ccc(OC(F)(F)F)cc1)c1nc(C(=O)c2ccccc2)nc2ccc(F)cc12`, the inhibition at 5 µM in [1] was 10.4%; in [2], -2.2%; in series [4], -3.1%; in [5], 18.4%. The inhibition at 48 h, 5 µM in [3] amounted to 1.3%.
For `CC(C)[C@H](N)c1nc(Nc2ccc(OC(F)(F)F)cc2)c2ccccc2n1`, in that order: 13.3%, 7.2%, 2.6%, 11.4% and 4.4%.
Turning to `COC(=O)c1ccc(N(C)c2nc(C(=O)c3ccccc3)nc3ccc(F)cc23)cc1`, the inhibition at 5 µM in series [1] was 39%; in [2], 25.9%; in series [4], 16%; in series [5], 46.1%. In addition, the inhibition at 48 h, 5 µM in series [3] stood at 37.6%.
As for `CCOC(=O)c1c(C)nc(-c2ccc(N(C)c3nc(C(=O)c4ccccc4)nc4ccc(F)cc34)cc2)n1C`, the inhibition at 5 µM in series [1] is 1%; in series [2], 30.1%; in series [4] it was 4%; in [5], 1.8%. The inhibition at 48 h, 5 µM in series [3] was determined as 0.3%.
For `COc1cccc(C(=O)c2nc(N(C)c3ccc(OC)c(OC)c3)c3ccccc3n2)c1`, in that order: 25.3%, 38.8%, 47.1%, 45.4% and 46.3%.
For the compound `COc1ccc(Nc2nc([C@@H](N)C(C)C)nc3ccccc23)cc1`, the inhibition at 5 µM in series [1] was -4.8%; in [2], 0.8%; in [4], 9.3%; in series [5] it was 3.4%. The inhibition at 48 h, 5 µM in [3] is 8.4%.
Take `COc1cccc2c1C(=O)c1c(O)c3c(c(O)c1C2=O)C[C@@](O)(C(=O)CO)C[C@@H]3O[C@H]1C[C@H](N)[C@H](O)[C@H](C)O1` [DOXORUBICIN]: the IC50 in [6] turned out to be 4.4 µM; in series [9], 2.3 µM. For the same compound, the inhibition at 5 µM in [1] amounted to 80.1%; in [2], 61%; in series [4] it was 71.7%; in series [5], 30.1%. The compound further had an IC50 at 48 h in [8] of 2.4 µM. In addition, in [3], the inhibition at 48 h, 5 µM amounted to 81.1%.
In the case of `COC(=O)c1ccc(Nc2nc(C(=O)c3cccc(OC)c3)nc3ccccc23)cc1OC`, the inhibition at 5 µM came to 48.3% in series [1], 9.5% in series [2], 37.7% in series [4] and 40.1% in series [5]. Moreover, in series [3], the inhibition at 48 h, 5 µM was 14.5%.
Regarding `C=CC(=O)Nc1cccc(Nc2nc(C(=O)c3ccccc3)nc3ccc(F)cc23)c1`, the inhibition at 5 µM in series [1] came out at 9.6%; in series [2], 8.9%; in [4], 7%; in series [5], 7.9%. Moreover, in series [3], the inhibition at 48 h, 5 µM was determined as 4.8%.
For `CC(C)[C@H](N)c1nc(N(C)c2ccc(OC(F)(F)F)cc2)c2ccccc2n1`, in that order: 7%, 81.4%, 11.3%, 56.2% and 25.5%.
The corresponding values for `COC(=O)c1ccc(N(C)c2nc(C(=O)c3ccc(F)cc3)nc3ccccc23)cc1OC` are 43.6%, 40.2%, 31.2%, 21.9% and 38%.
As for `COC(=O)c1ccc(Nc2nc(C(=O)c3ccccc3)nc3ccc(F)cc23)cc1`, the inhibition at 5 µM in [1] is 29.3%; in [2] it was 19.5%; in [4] it was 0.8%; in [5], 17.7%. The inhibition at 48 h, 5 µM in [3] came out at 11.1%.
The corresponding values for `COc1cccc(C(=O)c2nc(Nc3ccc(OC)c(OC)c3)c3ccccc3n2)c1` are -10.2%, 8.7%, 41.1%, 47.4% and 5.5%.
For the compound `COc1cc(N2CCNCC2)ccc1N(C)c1nc(C(=O)c2ccc(F)cc2)nc2ccccc12`, the inhibition at 5 µM in series [1] turned out to be 17.3%; in [2], 3.3%; in series [4] it was 5.2%; in series [5] it was 11.9%. The inhibition at 48 h, 5 µM in [3] came to 3.2%.
For the compound `CN(c1ccc(N2CCOCC2)cc1)c1nc(C(=O)c2ccccc2)nc2ccc(F)cc12`, the inhibition at 5 µM came to 35.4% in [1], 35.4% in series [2], 40.3% in [4] and 3.3% in series [5]. In addition, in series [3], the inhibition at 48 h, 5 µM came out at 34.5%.
Turning to `CC(C)[C@H](N)c1nc(Nc2ccc(N3CCOCC3)cc2)c2ccccc2n1`, the inhibition at 5 µM was 2.1% in [1], 8.2% in series [2], 6.5% in [4] and -0.7% in series [5]. Besides, the inhibition at 48 h, 5 µM in series [3] turned out to be 1.2%.
For `COC(=O)c1ccc(Nc2nc(C(=O)c3ccc(F)cc3)nc3ccccc23)cc1OC`, in that order: -5.7%, 8.5%, 8.2%, 8.5% and 4.6%.
As for `COC(=O)c1ccc(Nc2nc(C(=O)c3ccc(F)cc3)nc3ccccc23)cc1`, the inhibition at 5 µM is 19% in series [1], 6.8% in [2], 37.8% in [4] and 35.7% in series [5]. Moreover, in series [3], the inhibition at 48 h, 5 µM came out at 18.9%.
Regarding `O=C(c1ccc(F)cc1)c1nc(Nc2ccc(N3CCNCC3)c(F)c2)c2ccccc2n1`, the inhibition at 5 µM in series [1] is -9.6%; in series [2], -10.7%; in series [4], 11.3%; in [5], 4.1%. For the same compound, in [3], the inhibition at 48 h, 5 µM stood at 9.5%.
Take `O=C(c1ccccc1)c1nc(Nc2ccc(N3CCOCC3)cc2)c2cc(F)ccc2n1`: the inhibition at 5 µM in series [1] came out at 3.1%; in [2], 28.1%; in [4], 31.1%; in series [5], 39.3%. Moreover, the inhibition at 48 h, 5 µM in series [3] came out at 29.7%.
Regarding `O=C(c1ccccc1)c1nc(Nc2ccc(OC(F)(F)F)cc2)c2cc(F)ccc2n1`, the inhibition at 5 µM in series [1] turned out to be 47.6%; in series [2] it was 19.3%; in series [4], 27.8%; in series [5] it was 42.2%. In addition, the inhibition at 48 h, 5 µM in [3] stood at 23%.
The corresponding values for `Cc1ccc(Nc2nc(C(=O)c3ccc(F)cc3)nc3ccccc23)c(C(=O)O)c1` are -4.2%, 6.5%, 42.7%, 29.9% and 20.6%.
For `COc1ccc(Nc2nc(C(=O)c3ccccc3)nc3ccc(F)cc23)cc1`, in that order: 3.4%, 0.5%, 2%, 2.9% and 2.4%.
For `COc1ccc(Nc2nc(C(=O)c3cccc(OC)c3)nc3ccccc23)cc1`, the inhibition at 5 µM in series [1] amounted to 46.5%; in series [2], 25.2%; in series [4] it was 40.1%; in series [5], 44.3%. For the same compound, the inhibition at 48 h, 5 µM in series [3] worked out at 4.7%.
As for `COc1cc(N(C)c2nc(C(=O)c3ccc(F)cc3)nc3ccccc23)ccc1C(=O)O`, the inhibition at 5 µM in series [1] was -8.9%; in series [2] it was 6.4%; in [4], 12.3%; in series [5], 5.1%. Also, the inhibition at 48 h, 5 µM in series [3] was 5.3%.
For `CC(C)(CN1C(=O)C(Cl)=C(Cl)C1=O)CN1C(=O)C(Cl)=C(Cl)C1=O`, the half-inhibitory concentration (IC50) in series [6] was 3.4 µM; in [7] it was 2.7 µM; in series [9] it was 1.8 µM; in series [10], 6.8 µM. In addition, the inhibition at 5 µM in series [1] came out at 51.1%; in series [2], 35%; in series [4] it was 69.1%; in [5], 7.3%. This compound registered an IC50 at 48 h in [8] of 3.1 µM. In addition, the inhibition at 48 h, 5 µM in series [3] stood at 71%.
`COc1cc(N2CCNCC2)ccc1Nc1nc(C(=O)c2ccc(F)cc2)nc2ccccc12`: the inhibition at 5 µM in series [1] was 9%; in series [2], -6.6%; in series [4], 1.7%; in series [5], -0.5%. For the same compound, the inhibition at 48 h, 5 µM in series [3] came to 5.8%.
